ChEMBL document CHEMBL1201862, “PubChem BioAssay data set” (2004)
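Results reflect a 48-hour exposure of cells in 96-well plates to compound at five concentrations. GI50 marks 50% less growth.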 Activity calls are given as the source filed them. Cut-off read from the data, not from the text of the source: active = GI50 up to about 1.1 µM and inactive = higher.

Key:
Experiment in all cases: NCI anticancer screen, dose series, 48 h
HCT-116 = system: HCT-116
IGROV-1 = system: IGROV-1
PC-3 = system: PC-3
SF-268 = system: SF-268
SK-MEL-5 = system: SK-MEL-5
T47D = system: T47D
CCRF-CEM = system: CCRF-CEM
SNB-19 = system: SNB-19
COLO 205 = system: COLO 205
MDA-MB-435 = system: MDA-MB-435
MDA-MB-231 = system: MDA-MB-231
EKVX = system: EKVX
Malme-3M = system: Malme-3M
HCC 2998 = system: HCC 2998
RPMI-8226 = system: RPMI-8226
SR = system: SR
CAKI-1 = system: CAKI-1
NCI-H23 = system: NCI-H23
RXF 393 = system: RXF 393
NCI-H226 = system: NCI-H226

SMILES	GI50 (HCT-116)	GI50 (IGROV-1)	GI50 (PC-3)	GI50 (SF-268)	GI50 (SK-MEL-5)	GI50 (T47D)	GI50 (CCRF-CEM)	GI50 (SNB-19)	GI50 (COLO 205)	GI50 (MDA-MB-435)	GI50 (MDA-MB-231)	GI50 (EKVX)	GI50 (Malme-3M)	GI50 (HCC 2998)	GI50 (RPMI-8226)	GI50 (SR)	GI50 (CAKI-1)	GI50 (NCI-H23)	GI50 (RXF 393)	GI50 (NCI-H226)
CCOC(=O)CC(N1CC1)N1CC1	> 10 µM (inactive)	> 10 µM (inactive)	> 10 µM (inactive)	> 10 µM (inactive)	> 10 µM (inactive)	> 10 µM (inactive)	> 10 µM (inactive)	> 10 µM (inactive)	> 10 µM (inactive)	> 10 µM (inactive)	> 10 µM (inactive)	> 10 µM (inactive)	> 10 µM (inactive)	> 10 µM (inactive)	> 10 µM (inactive)	> 10 µM (inactive)	> 10 µM (inactive)	> 10 µM (inactive)	> 10 µM (inactive)	> 10 µM (inactive)
COc1cc2cccc(N)c2cc1OC	> 100 µM (inactive)	> 100 µM (inactive)	> 100 µM (inactive)	> 100 µM (inactive)	> 100 µM (inactive)	> 100 µM (inactive)	> 80.5 µM (inactive)	> 100 µM (inactive)	> 100 µM (inactive)	> 100 µM (inactive)	> 100 µM (inactive)	> 100 µM (inactive)	> 100 µM (inactive)	> 100 µM (inactive)	> 100 µM (inactive)	> 45.3 µM (inactive)	> 100 µM (inactive)	> 100 µM (inactive)	> 100 µM (inactive)	> 100 µM (inactive)
N#Cc1c(C#N)c(SSc2c(C#N)c(C#N)c(N)n2-c2cccc3ccccc23)n(-c2cccc3ccccc23)c1N	2.37 µM (inactive)	7.45 µM (inactive)	17.4 µM (inactive)	14.4 µM (inactive)	20.2 µM (inactive)	1.92 µM (inactive)	1.97 µM (inactive)	20.9 µM (inactive)	3.67 µM (inactive)	8.77 µM (inactive)	18.4 µM (inactive)	5.51 µM (inactive)	1.85 µM (inactive)	20.1 µM (inactive)	2.76 µM (inactive)	2.34 µM (inactive)	8.05 µM (inactive)	11.2 µM (inactive)	6.08 µM (inactive)	30.2 µM (inactive)
Nc1nc2[nH]cnc2c(=S)[nH]1 [THIOGUANINE]	0.538 µM (active)	4.85 µM (inactive)	1.92 µM (inactive)	1.09 µM (active)	3.5 µM (inactive)	2.07 µM (inactive)	0.169 µM (active)	76.9 µM (inactive)	1.75 µM (inactive)	0.851 µM (active)	2.51 µM (inactive)	2.03 µM (inactive)	1.28 µM (inactive)	0.957 µM (active)	0.438 µM (active)	0.182 µM (active)	0.621 µM (active)	1.1 µM (active)	0.865 µM (active)	4.41 µM (inactive)
CCOC(=O)CCN1C(=O)c2c(NC(=O)C(=O)O)cccc2S1(=O)=O	> 100 µM (inactive)	> 100 µM (inactive)	> 100 µM (inactive)	> 100 µM (inactive)	> 10 µM (inactive)	> 100 µM (inactive)	> 100 µM (inactive)	> 100 µM (inactive)	> 100 µM (inactive)	> 100 µM (inactive)	> 100 µM (inactive)	> 100 µM (inactive)	> 100 µM (inactive)	> 100 µM (inactive)	> 100 µM (inactive)	> 100 µM (inactive)	> 100 µM (inactive)	> 100 µM (inactive)	> 100 µM (inactive)	> 100 µM (inactive)
O=C(CCc1ccccc1)n1cccc1CO	> 100 µM (inactive)	> 100 µM (inactive)	> 100 µM (inactive)	> 100 µM (inactive)	> 100 µM (inactive)	96.4 µM (inactive)	> 100 µM (inactive)	> 100 µM (inactive)	> 100 µM (inactive)	> 100 µM (inactive)	> 100 µM (inactive)	> 100 µM (inactive)	> 100 µM (inactive)	> 100 µM (inactive)	> 100 µM (inactive)	> 100 µM (inactive)	> 100 µM (inactive)	> 100 µM (inactive)	93.3 µM (inactive)	> 100 µM (inactive)
Cc1cc(N(CCOS(C)(=O)=O)CCOS(C)(=O)=O)ccc1/C=N/c1ccc(-c2csc(-c3ccc(Br)cc3)n2)cc1	27.5 µM (inactive)	5.43 µM (inactive)	19.5 µM (inactive)	9.95 µM (inactive)	14.2 µM (inactive)	10.9 µM (inactive)	1.12 µM (inactive)	19.4 µM (inactive)	1.22 µM (inactive)	17.2 µM (inactive)	15.5 µM (inactive)	6.24 µM (inactive)	21.9 µM (inactive)	6.58 µM (inactive)	16 µM (inactive)	1.7 µM (inactive)	0.285 µM (active)	5.07 µM (inactive)	1.78 µM (inactive)	12.6 µM (inactive)
Cn1cnc2c(NCc3ccccc3)nc(NCCO)nc21 [OLOMOUCINE]	34.8 µM (inactive)	42.3 µM (inactive)	98.2 µM (inactive)	49 µM (inactive)	40.6 µM (inactive)	50.5 µM (inactive)	54.6 µM (inactive)	48.6 µM (inactive)	30.1 µM (inactive)	78.7 µM (inactive)	92.7 µM (inactive)	94.4 µM (inactive)	98.2 µM (inactive)	79.1 µM (inactive)	53.8 µM (inactive)	29.7 µM (inactive)	33.7 µM (inactive)	59.6 µM (inactive)	67 µM (inactive)	51.3 µM (inactive)
Nc1nncs1	1500 µM (inactive)	2580 µM (inactive)	2610 µM (inactive)	3950 µM (inactive)	2360 µM (inactive)	> 3040 µM (inactive)	1010 µM (inactive)	3730 µM (inactive)	456 µM (inactive)	1630 µM (inactive)	2320 µM (inactive)	1320 µM (inactive)	3590 µM (inactive)	2160 µM (inactive)	991 µM (inactive)	2000 µM (inactive)	1760 µM (inactive)	1640 µM (inactive)	2930 µM (inactive)	3480 µM (inactive)
CN(C(=O)CCC(=O)O)c1ccccc1C(=O)O	> 100 µM (inactive)	> 100 µM (inactive)	> 100 µM (inactive)	> 100 µM (inactive)	> 100 µM (inactive)	> 100 µM (inactive)	> 100 µM (inactive)	> 100 µM (inactive)	> 100 µM (inactive)	> 100 µM (inactive)	> 100 µM (inactive)	> 100 µM (inactive)	> 100 µM (inactive)	> 100 µM (inactive)	> 100 µM (inactive)	> 100 µM (inactive)	> 100 µM (inactive)	> 100 µM (inactive)	> 100 µM (inactive)	> 100 µM (inactive)
Cc1cc(C)c2c(=O)n(CN3CCC(O)(c4ccccc4)CC3)sc2n1	39.9 µM (inactive)	> 100 µM (inactive)	60.1 µM (inactive)	31.1 µM (inactive)	97.3 µM (inactive)	80.9 µM (inactive)	19.4 µM (inactive)	> 100 µM (inactive)	39.2 µM (inactive)	20.4 µM (inactive)	73.1 µM (inactive)	25 µM (inactive)	17.6 µM (inactive)	27.4 µM (inactive)	23.4 µM (inactive)	29.9 µM (inactive)	43.5 µM (inactive)	27.8 µM (inactive)	19.8 µM (inactive)	> 100 µM (inactive)
C[C@]12CC[C@H]3[C@@H](CC=C4C[C@@H](O)CC[C@@]43C)[C@@H]1C/C(=C\c1ccncc1)[C@@H]2O	18.7 µM (inactive)	21.8 µM (inactive)	19.1 µM (inactive)	21.2 µM (inactive)	8.51 µM (inactive)	12.1 µM (inactive)	19.5 µM (inactive)	21.2 µM (inactive)	10.6 µM (inactive)	19.7 µM (inactive)	28.8 µM (inactive)	14.8 µM (inactive)	22.6 µM (inactive)	31.8 µM (inactive)	9.91 µM (inactive)	8.87 µM (inactive)	18.1 µM (inactive)	13.7 µM (inactive)	18.1 µM (inactive)	17.7 µM (inactive)
O=C(O)c1cc2ccccc2c(/N=N/c2ccc(S(=O)(=O)O)cc2)c1O	> 100 µM (inactive)	> 100 µM (inactive)	> 100 µM (inactive)	> 100 µM (inactive)	> 100 µM (inactive)	> 100 µM (inactive)	> 100 µM (inactive)	0.0264 µM (active)	> 100 µM (inactive)	> 100 µM (inactive)	> 100 µM (inactive)	> 100 µM (inactive)	> 100 µM (inactive)	> 100 µM (inactive)	> 100 µM (inactive)	> 100 µM (inactive)	> 100 µM (inactive)		> 100 µM (inactive)	> 100 µM (inactive)
Cc1c(C)c2c(c(N)c1C#N)C(=O)N(NC(=O)c1ccccc1)C2=O	> 100 µM (inactive)	> 100 µM (inactive)	> 100 µM (inactive)	> 100 µM (inactive)	> 100 µM (inactive)	24.8 µM (inactive)	> 100 µM (inactive)	> 100 µM (inactive)	> 100 µM (inactive)	> 100 µM (inactive)	> 100 µM (inactive)	76.7 µM (inactive)	> 100 µM (inactive)	> 100 µM (inactive)	> 100 µM (inactive)	> 100 µM (inactive)	> 100 µM (inactive)		> 100 µM (inactive)	> 100 µM (inactive)
